Data: ChEMBL document CHEMBL2074167, “Sterol transport by the human breast cancer resistance protein (ABCG2) expressed in Lactococcus lactis” (J Biol Chem, 2003)

How the values were obtained:
[1] = target: T1, Broad substrate specificity ATP-binding cassette transporter ABCG2 (Homo sapiens, UniProt Q9UNQ0); assay: TP_TRANSPORTER: uptake in membrane vesicle from BCRP-expressing Lactococcus lactis cells; format: functional, cell membranes, NZ9000
T1 sequence (Q9UNQ0 whole entry): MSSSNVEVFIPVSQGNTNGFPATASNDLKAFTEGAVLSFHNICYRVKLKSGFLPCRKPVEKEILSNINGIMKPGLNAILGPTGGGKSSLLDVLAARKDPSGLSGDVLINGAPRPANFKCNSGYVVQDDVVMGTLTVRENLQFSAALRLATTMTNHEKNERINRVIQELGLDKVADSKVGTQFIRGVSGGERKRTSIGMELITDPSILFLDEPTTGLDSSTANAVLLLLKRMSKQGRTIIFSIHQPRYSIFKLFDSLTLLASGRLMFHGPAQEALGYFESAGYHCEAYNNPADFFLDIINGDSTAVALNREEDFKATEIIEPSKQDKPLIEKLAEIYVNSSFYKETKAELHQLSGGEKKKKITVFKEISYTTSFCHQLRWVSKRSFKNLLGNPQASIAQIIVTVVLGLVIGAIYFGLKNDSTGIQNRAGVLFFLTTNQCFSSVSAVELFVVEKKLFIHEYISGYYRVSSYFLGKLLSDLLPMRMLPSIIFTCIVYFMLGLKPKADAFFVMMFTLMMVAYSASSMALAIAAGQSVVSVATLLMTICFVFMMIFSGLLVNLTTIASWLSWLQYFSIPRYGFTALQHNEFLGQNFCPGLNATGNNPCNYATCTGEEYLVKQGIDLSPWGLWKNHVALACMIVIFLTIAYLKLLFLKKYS

[2] = target: T1, Broad substrate specificity ATP-binding cassette transporter ABCG2; assay: TP_TRANSPORTER: uptake in BCRP-expressing Lactococcus lactis cells; format: functional, NZ9000
[3] = target: T1, Broad substrate specificity ATP-binding cassette transporter ABCG2; assay: TP_TRANSPORTER: ATPase assay in membrane vesicle from BCRP-expressing Lactococcus lactis cells; format: functional, cell membranes, NZ9000
[4] = target: T1, Broad substrate specificity ATP-binding cassette transporter ABCG2; assay: TP_TRANSPORTER: growth inhibition in BCRP-expressing Lactococcus lactis cells; format: functional, NZ9000

SMILES	Activity [2]	Activity [3]	also measured
CCOc1ccc(-c2nc3cc(-c4nc5cc(N6CCN(C)CC6)ccc5[nH]4)ccc3[nH]2)cc1	substrate []	–	Activity [1]: substrate []
CC(C)CCC[C@@H](C)[C@H]1CC[C@H]2[C@@H]3CC=C4C[C@@H](O)CC[C@]4(C)[C@H]3CC[C@]12C [CHOLESTEROL]	–	substrate []	–
COc1cccc2c1C(=O)c1c(O)c3c(c(O)c1C2=O)C[C@@](O)(C(C)=O)C[C@@H]3O[C@H]1C[C@H](N)[C@H](O)[C@H](C)O1 [DAUNORUBICIN]	–	substrate []	–
C[C@]12CC[C@@H]3c4ccc(O)cc4CC[C@H]3[C@@H]1CC[C@@H]2O [ESTRADIOL]	substrate []	substrate []	–
CC[n+]1c(-c2ccccc2)c2cc(N)ccc2c2ccc(N)cc21.[Br-] [HOMIDIUM BROMIDE]	substrate []	–	Activity [4]: substrate []
CC(=O)[C@H]1CC[C@H]2[C@@H]3CCC4=CC(=O)CC[C@]4(C)[C@H]3CC[C@]12C [PROGESTERONE]	–	substrate []	–
COC(=O)c1ccccc1-c1c2ccc(=N)cc-2oc2cc(N)ccc12.Cl [RHODAMINE123]	substrate []	–	–
CC/C(=C(\c1ccccc1)c1ccc(OCCN(C)C)cc1)c1ccccc1 [TAMOXIFEN]	–	substrate []	–
C[C@]12CC[C@H]3[C@@H](CCC4=CC(=O)CC[C@@]43C)[C@@H]1CC[C@@H]2O [TESTOSTERONE]	–	substrate []	–
